Structures are written as SMILES. A value given as a limit tells only on which side of the number the result lay.

The source of these data is a melting point compilation (Tetko et al.; mined from patent text by program, amines drawn as free bases though some values may be those of a salt).

As a reminder, the melting point is the temperature of the solid-liquid transition. As to `OC1CCc2c(Cl)cc(Cl)cc2C1` (stereo unspecified), the melting point fell in the range of 84 to 86 °C. For `CCOc1nc(Nc2ccc(F)c(F)c2)nc(NC2CCN(S(=O)(=O)c3ccc(F)cc3)CC2)n1`, the melting point lay in the range of 240 to 242 °C. With `O=C1CSCc2cc(Br)ccc21` the figure was 81 °C.

The compound `CCOC(=O)C1=C(C)Nc2nccn2C1C` (stereo unspecified) gave a melting point of 185 to 186 °C. Turning to `O=C(NN=Cc1ccnc2ccccc12)C1CCC1`, the melting point was determined as 138 °C. Under `COc1cc(OC)cc(-c2ncn(C)c2-c2ccc3c(c2)NCCO3)c1` stands 175 to 178 °C. With `ON=c1cc(-c2cc3cccn3cn2)oc2ccc(OCCc3ccc(Cl)cc3)cc12` the figure was 247 to 249 °C; with `COc1ccc(-c2nc(N)n3nc(-c4ccco4)nc3n2)cc1OC`, 205 to 208 °C; with `c1ccc(C2CC(n3cncn3)c3ccccc3N2)cc1` (stereo unspecified), 162 to 164 °C. With `CC1(C)c2cc3[nH]c(-c4ccncc4)nc3cc2C(=O)NC1O` (stereo unspecified) the figure was 260 to 268 °C; with `COc1cc(C(=O)N(C(C)C)C(C)C)ccc1OCCCCCOc1ccc(C#N)cc1`, 90 to 92 °C; with `CON1CCC2(CC1)C(O)=C(c1c(C)cc(C)cc1C)C(=O)N2C`, 171 to 178 °C. The compound `COCCOCCn1cc(C(=O)NCc2ccc(Cl)cc2)c(=O)c2cc(CSC)ccc21` had a melting point of 154 to 155 °C. With `CSc1nc(-c2ccccc2)n(-c2ccc(F)cc2)c(=O)c1C#N` the figure was 204 to 205 °C; with `CCCCCCCCCCC1COc2c(C(=O)OCC)sc(C(=O)OCC)c2O1` (stereo unspecified), 89 to 90 °C. `CN(C)c1nc(N)nc2nc[nH]c12` yielded a melting point of 254 to 256 °C.

For the compound `COc1cccc(C(=O)Nc2ccccc2C(c2ccc(O)cc2)c2ccc(O)cc2)c1`, the melting point was in the range of 165 to 168 °C.

As for `CN(C)CCNC(=O)Cc1ccc(NC(=O)Cc2ccc([N+](=O)[O-])cc2)cc1`, the melting point was 160 to 162 °C. In turn, `CCCOc1ccccc1-c1cc(C)c(C#N)c(=O)[nH]1` showed a melting point of 180 °C. `COc1ccc(Br)cc1S(=O)(=O)NCCCl` displayed a melting point of 150 °C. As for `COc1ccc(C(O)c2sccc2C=O)cc1OC` (stereo unspecified), the melting point fell in the range of 90 to 91 °C.

Consider `COC(=O)Cc1ccc(Sc2ccccc2C(=O)O)c([N+](=O)[O-])c1`, for which the melting point was in the range of 135 to 136 °C. `O=C(O)C1CCCc2sc(=O)[nH]c21` (stereo unspecified): the melting point was found to be 192 °C.

For the compound `CC1(C)SC(c2cccnc2)NC1C(=O)O` (stereo unspecified), the melting point is 164 to 165 °C.

In turn, `CS(=O)(=O)Nc1cc([N+](=O)[O-])ccc1F` gave a melting point of 128 to 129 °C. Compound `CN(c1cccc2cc(C3=NCC4(CCN(CCO)CC4)S3)[nH]c12)S(=O)(=O)c1cccs1` had a melting point of 214 °C. Regarding `C=COCCONC(=O)c1cc(F)c(F)c(F)c1Nc1ccc(I)cc1Cl`, the melting point was 115 to 116 °C. Regarding `COc1cc2c(cc1OC)CN(CCc1ccc(NC(=O)c3cccc4c(=O)c5cccc(C)c5[nH]c34)cc1)CC2`, the melting point is 175 °C. The compound `O=C1NC(=S)SC1=Cc1ccc(OCc2ccccc2-c2ccccc2C(=O)O)cc1` returned a melting point of over 225 °C.

In turn, `CCn1c2ccccc2c2cc(C=C(C#N)c3ccc(C(F)(F)F)cc3)ccc21` registered a melting point of 164 to 165 °C. Turning to `CN(c1ccc2c(c1)CCC2)c1nc(=O)c2cccnc2s1`, the melting point fell in the range of 157 to 160 °C. Under `CC(C)(O)CCNC(=O)c1n[nH]cc1NC(=O)c1ccccn1` stands 193 to 194 °C; under `CCn1c(=O)n(C)c(=O)n(-c2cc(C(=O)OC)c(Cl)cc2F)c1=O`, 48 to 49 °C; under `Cn1ncc(/C=C/C(=O)Nc2ccc(Cc3nc4c(s3)CCCC4)cc2)c1-c1ccc(F)cc1`, 205 to 206 °C. For the compound `CCCc1cc(=O)n(-c2cc(OC(C)C)c(Cl)cc2F)c(=O)n1C`, the melting point was in the range of 115 to 117 °C. The compound `CCN(CC)CC1CN=C(NC(=O)Nc2ccccc2)O1` (stereo unspecified) showed a melting point of 148 °C.
